Laboratory results published in patent US20060100260A1, “Substituted pyrazoline carboxanilides for use as pesticides” (priority 2002, published 2006).

What was measured:
[1] = test system: larvae of the mustard beetle (Phaedon cochleariae); test: Phaedon larvae test; type: in vivo; conditions: active compound concentration 100 ppm; after 7 days; dipped cabbage leaves
Method: (§1) [table] To produce a suitable preparation of active compound, 1 part by weight of active compound is mixed with the stated amounts of solvent and emulsifier, and the concentrate is diluted with emulsifier-containing water to the desired concentration. Cabbage leaves (Brassica oleracea) are treated by being dipped into the preparation of active compound of the desired concentration and are populated with larvae of the mustard beetle (Phaedon cochleariae) while the leaves are still moist. After the desired period of time, the kill in % is determined. 100% means that all beetle larvae have been killed; 0% means that none of the beetle larvae have been killed.

[2] = logP determination by HPLC (EEC Directive 79/831 Annex V.A8); type: physicochemical; conditions: reversed-phase HPLC column (C 18), pH 2.3, reversed-phase column (C 18), 43° C.
Method: The logP values given in the Preparation Examples are determined in accordance with EEC Directive 79/831 Annex V.A8 by HPLC (High Performance Liquid Chromatography) using a reversed-phase column (C 18). Temperature: 43° C.
The determination is carried out in the acidic range at pH 2.3 using the mobile phases 0.1% aqueous phosphoric acid and acetonitrile; linear gradient from 10% acetonitrile to 90% acetonitrile.
Calibration is carried out using unbranched alkan-2-ones (having 3 to 16 carbon atoms) with known logP values (determination of the logP values by the retention times using linear interpolation between two successive alkanones).

[3] = test system: caterpillars of the armyworm (Spodoptera frugiperda); test: Spodoptera frugiperda test; type: in vivo; conditions: active compound concentration 100 ppm; after 7 days; dipped cabbage leaves
Method: as §1, with “caterpillars” for “larvae”, “armyworm (Spodoptera frugiperda)” for “mustard beetle (Phaedon cochleariae)”, “caterpillars” for “beetle larvae”

Heliothis armigera = Heliothis armigera test; type: in vivo; conditions: active compound concentration 100 ppm; after 7 days; dipped soya bean shoots
[4] = test system: caterpillars of the diamondback moth (Plutella xylostella); test: Plutella test; type: in vivo; conditions: active compound concentration 100 ppm; after 7 days; dipped cabbage leaves
Method: as §1, with “caterpillars” for “larvae”, “diamondback moth (Plutella xylostella)” for “mustard beetle (Phaedon cochleariae)”, “caterpillars” for “beetle larvae”

SMILES | kill [1] [%] | chromatographic logP [2] | kill [3] [%] | kill (Heliothis armigera) [%] | kill [4] [%]
N#CCN(C(=O)N1CC(n2cc(Cl)cn2)C(c2ccc(Cl)cc2)=N1)c1ccc(Cl)cc1 (stereo not drawn) [Example 1, 3-(4-chlorophenyl)-4-(4-chloropyrazol-1-yl)-4,5-dihydro-1-pyrazolecarboxylic acid (N-cyanomethyl)-4-chloroanilide] | 100 | 3.94 | 100 | 100 | 100
Clc1ccc(C2=NNCC2n2cc(Cl)cn2)cc1 (stereo not drawn) [Example (II-1), 3-(4-chlorophenyl)-4-(4-chloropyrazol-1-yl)-4,5-dihydro-1H-pyrazole] |  | 2.64 |  |  | 
